Measurements reported in PubChem BioAssay (NCI).
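Interpolation was linear, between the two tested concentrations surrounding the appropriate level; five concentrations were tested over 48 hours in 96-well plates. The concentration for 50% growth inhibition is given as GI50. TGI: total growth inhibition.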

How the values were obtained:
Experiment in all cases: inhibition of tumour cell growth, NCI panel, 48 h
786-0 renal = system: 786-0 renal
A498 renal = system: A498 renal
A549 NSCLC = system: A549 NSCLC
ACHN renal = system: ACHN renal
BT-549 breast = system: BT-549 breast
CAKI-1 renal = system: CAKI-1 renal
CCRF-CEM leukemia = system: CCRF-CEM leukemia
COLO 205 colon = system: COLO 205 colon
DU-145 prostate = system: DU-145 prostate
EKVX NSCLC = system: EKVX NSCLC
HCC-2998 colon = system: HCC-2998 colon
HCT-116 colon = system: HCT-116 colon
HCT-15 colon = system: HCT-15 colon
HL-60(TB) leukemia = system: HL-60(TB) leukemia
HOP-62 NSCLC = system: HOP-62 NSCLC
HOP-92 NSCLC = system: HOP-92 NSCLC
HS 578T breast = system: HS 578T breast
HT29 colon = system: HT29 colon
IGROV1 ovarian = system: IGROV1 ovarian
K-562 leukemia = system: K-562 leukemia
KM12 colon = system: KM12 colon
LOX IMVI melanoma = system: LOX IMVI melanoma
M14 melanoma = system: M14 melanoma
MALME-3M melanoma = system: MALME-3M melanoma
MCF7 breast = system: MCF7 breast
MDA-MB-231 breast = system: MDA-MB-231 breast
MDA-MB-435 = system: MDA-MB-435
MOLT-4 leukemia = system: MOLT-4 leukemia
NCI-H226 lung = system: NCI-H226 lung

Structure (SMILES): COc1ccc(-c2cc3c(OC)c(OC)c(OC)cc3oc2=O)cc1
- GI50 (786-0 renal): 6.91 µM
- TGI (786-0 renal): > 100 µM
- GI50 (A498 renal): 1.7 µM
- TGI (A498 renal): 6.98 µM
- GI50 (A549 NSCLC): 4.62 µM
- TGI (A549 NSCLC): > 100 µM
- GI50 (ACHN renal): 7.47 µM
- TGI (ACHN renal): > 100 µM
- GI50 (BT-549 breast): 5.85 µM
- TGI (BT-549 breast): 71.6 µM
- GI50 (CAKI-1 renal): 4.59 µM
- TGI (CAKI-1 renal): > 100 µM
- GI50 (CCRF-CEM leukemia): 3.1 µM
- TGI (CCRF-CEM leukemia): 45.9 µM
- GI50 (COLO 205 colon): 3.66 µM
- TGI (COLO 205 colon): 14.7 µM
- GI50 (DU-145 prostate): 4.51 µM
- TGI (DU-145 prostate): 59.9 µM
- GI50 (EKVX NSCLC): 8.32 µM
- TGI (EKVX NSCLC): > 100 µM
- GI50 (HCC-2998 colon): 4.41 µM
- TGI (HCC-2998 colon): > 100 µM
- GI50 (HCT-116 colon): 3.97 µM
- TGI (HCT-116 colon): 18.6 µM
- GI50 (HCT-15 colon): 3.43 µM
- TGI (HCT-15 colon): > 100 µM
- GI50 (HL-60(TB) leukemia): 2.95 µM
- TGI (HL-60(TB) leukemia): 12.8 µM
- GI50 (HOP-62 NSCLC): 4.68 µM
- TGI (HOP-62 NSCLC): > 100 µM
- GI50 (HOP-92 NSCLC): 2.61 µM
- TGI (HOP-92 NSCLC): 22.4 µM
- GI50 (HS 578T breast): 2.59 µM
- TGI (HS 578T breast): 7.96 µM
- GI50 (HT29 colon): 3.42 µM
- TGI (HT29 colon): 13.1 µM
- GI50 (IGROV1 ovarian): 5.81 µM
- TGI (IGROV1 ovarian): > 100 µM
- GI50 (K-562 leukemia): 2.02 µM
- TGI (K-562 leukemia): > 100 µM
- GI50 (KM12 colon): 1.79 µM
- TGI (KM12 colon): > 100 µM
- GI50 (LOX IMVI melanoma): 5.32 µM
- TGI (LOX IMVI melanoma): > 100 µM
- GI50 (M14 melanoma): 3.31 µM
- TGI (M14 melanoma): > 100 µM
- GI50 (MALME-3M melanoma): 4.37 µM
- TGI (MALME-3M melanoma): > 100 µM
- GI50 (MCF7 breast): 3.69 µM
- TGI (MCF7 breast): > 100 µM
- GI50 (MDA-MB-231 breast): 4.91 µM
- TGI (MDA-MB-231 breast): 62.5 µM
- GI50 (MDA-MB-435): 0.444 µM
- TGI (MDA-MB-435): 2.37 µM
- GI50 (MOLT-4 leukemia): 3.92 µM
- TGI (MOLT-4 leukemia): 22.2 µM
- GI50 (NCI-H226 lung): 13.3 µM
